Reference: patent US11291640B2, “Endoxifen for the treatment of bipolar I disorder” (Jina Pharmaceuticals, Inc., priority 2020, dated 2022)
Where a name gives a salt, the structure may show the parent alone.

Columns and labels:
[1] = test system: patients of bipolar I disorders; assay: Clinical study, MADRS score at each visit; assay type: in vivo; conditions: day 21 (EOT); patient with bipolar I disorders
Method: (§1) Clinical study of an enteric coated tablet comprising endoxifen citrate formulation was carried out by administering to the patient doses of 2 mg to 16 mg of endoxifen citrate in an enteric coated tablet once per day for at least 21 days according to the present application.
(§2) The clinical study was a multicenter, randomized, double-blind, double-dummy, active controlled, parallel study to assess the efficacy and safety of endoxifen enteric coated tablet 8 mg and divalproex sodium extended release tablet 1000 mg in patients of bipolar I disorders.
(§3) Total 228 patients were enrolled in the study. All 228 patients were qualified for safety and mITT population and 213 patients were qualified for PP population.

[2] = test system: patients of bipolar I disorders; assay: Clinical study, response time, remission time and therapeutic dose monitoring; assay type: in vivo; conditions: from table 1 and 2
Method: The term “response time” means an early indicator of treatment efficacy and it is not more than 2 days of treatment according to the embodiments described herein.
The term “remission time” refers to an absence or minimal symptoms of both mania and depression, which is not more than 4 days of treatment according to the embodiments described herein. Remission is the target of acute treatment.
as §1, §2

[3] = test system: patients of bipolar I disorders; assay: Clinical study, total YMRS score at each visit; assay type: in vivo; conditions: day 21 (EOT); patient with bipolar I disorders
Method: as §1, §2, §3

PKC = conditions: cited from earlier work

SMILES: CC/C(=C(\c1ccc(O)cc1)c1ccc(OCCNC)cc1)c1ccccc1 [Endoxifen, (Z)-1-(4-Hydroxyphenyl)-1-{4-[2-(monomethylamino)ethoxy]phenyl}-2-pheny 1-1-butene citrate]
- improvement in the MADRS score [1]: significant and sustained improvements
- early response time of the treatment [2]: at least 2 days
- remission time of treatment [2]: not more than 4 days
- improvement in the YMRS score [3]: significant and sustained improvements
- potency in inhibiting the PKC activity compared to tamoxifen (PKC): four-fold higher potency
